Experimental data as given in patent publication US12414948B2, “Methods” (INTRA-CELLULAR THERAPIES, INC., priority 2022, dated 2025).

What was measured:
[1] = tested on: hippocampal mRNA (Il1b, Il6, Tnfa, Il10, Cldn5); experiment: Hippocampal mRNA (qRT-PCR) after acute restraint stress; type: in vivo, mouse; conditions: mice, 2 h restraint stress, Luma 3 mg/kg IP
Protocol: Quantitative Real-Time PCR. Mouse hippocampal tissue is homogenized with glass beads in 1 mL of TRIzol reagent using a BeadBeater (Biospec Products, Bartlesville, OK). Heavy phase-lock gel tubes enabled separation of phases following the addition of 400 μL chloroform to the sample and centrifugation at 12,000 rpm for 10 minutes at room temperature. RNA is extracted using Qiagen Rneasy kit (Qiagen, Hilden, Germany). For cDNA synthesis, 2 μg of total RNA is used (SuperScript IV Reverse Transcriptase; ThermoFisher Scientific, Waltham, MA). The purity and concentration of RNA is measured with a Nanodrop spectrophotometer; the optical density (OD) 260/280 and OD 260/230 are within 1.8-2.3. In the hippocampus, 4 key markers of pro- and anti-inflammatory cytokines and chemokines (Il1b: ID Mm00434228_m1, Tnfa: ID Mm00443258_m1, 116: ID Mm00446190_m1, and I110: ID Mm01288386_m1; ThermoFisher Scientific) are initially chosen for analysis (n=5-12 per group). In subsequent experiments, the transcripts for other markers of inflammation are chosen for analysis including Icam1 (ID Mm00516023_m1; a cell adhesion molecule involved in immune cell migration), Cldn5 (ID Mm00727012_s1; a tight junctions protein), colony stimulating factor 1 (Csf1: ID Mm00432686_m1; a factor that regulates microglia function) and its receptor Csf1r (ID Mm01266652_m1), and the nucleotide binding and oligomerization domain-like receptor family pyrin domain-containing 3 inflammasome complex (Nlrp3: Mm00840904_m1). Gapdh (ID Mm99999915_g1) is chosen as a housekeeping gene. […] All mRNAs are measured by qRT-PCR on ABI Prism 7900HT system using TaqMan Gene Expression Assays. […]
Using similar procedures as described above, serum corticosterone levels and hippocampal Cldn5 mRNA expression are measured as well (corticosterone is measured using a commercial ELISA kit).

[2] = tested on: patients with schizophrenia; experiment: Randomized, double-blind, placebo-controlled phase 3 clinical trial in schizophrenia; type: in vivo, human
Protocol: A randomized, double-blind, placebo-controlled, phase 3 clinical trial was conducted with 450 patients with schizophrenia, aged 18 to 60 years, who were experiencing an acute exacerbation of psychosis. Patients were included if they were experiencing an acute exacerbation of psychosis, defined as a total score on the Brief Psychiatric Rating Scale of […] or higher, with a score of 4 or higher on 2 or more positive symptoms, and onset of the acute episode within 4 weeks of screening. Patients were required to have a score of 4 or higher, indicating moderate to severe disease severity, on the Clinical Global Impression-Severity of Illness (CGI-S) at screening and baseline. […]
The primary efficacy end point was mean change from baseline to day 28 in the Positive and Negative Syndrome Scale (PANSS) total score versus placebo. […] The PANSS subscale scores, social function, safety, and tolerability were also assessed. Primary and key secondary efficacy measures were assessed weekly. Safety was assessed by treatment-emergent adverse events (TEAEs), modified physical examinations, 12-lead electrocardiograms (ECGs), vital signs, and clinical laboratory tests (blood and urine samples for clinical laboratory analysis were collected from all subjects upon screening and on Days 1, 8, 28, and 33, following overnight fast).

[3] = relative change normalized to control (Dct method)

Structure (SMILES): CN1CCN2c3c(cccc31)[C@@H]1CN(CCCC(=O)c3ccc(F)cc3)CC[C@@H]12 [Luma, lumateperone]
- Hippocampal mRNA expression Cldn5 ([1]; normalized to control): 0.330
- Hippocampal cytokine mRNA expression IL-1b [1, 3]: 0.39
- Hippocampal cytokine mRNA expression IL-6 [1, 3]: −0.051
- Symptoms of schizophrenia ([2]; patients with acute exacerbation of psychosis, 60 mg or 40 mg lumateperone tosylate once daily for 28 days vs placebo): effective for improving the symptoms of schizophrenia
- Safety profile ([2]; patients with schizophrenia, 60 mg or 40 mg lumateperone tosylate once daily for 28 days): favorable safety profile
